Source: ChEMBL document CHEMBL4257526, “Identification of an auxiliary druggable pocket in the DNA gyrase ATPase domain using fragment probes” (Medchemcomm, 2018)

These compounds were tested against DNA gyrase (Escherichia coli, UniProt P0AES4+P0AES6) (assay: Inhibition of full length Escherichia coli DNA gyrase ATPase activity measured for 20 mins by lactate dehydrogenase assay).
Type: protein-complex assay
In the case of `Cc1ccc(CCC(=O)O)cc1`, the IC50 is reported as 120 µM.
`CC(C)(c1ccccc1)c1ccc(O)cc1` showed an IC50 of 390 µM.
Work on `Oc1ccc(Oc2ccc(C(F)(F)F)cc2)cc1` yielded an IC50 of 180 µM.
`Cc1cc(Oc2ccc(Cl)cc2Cl)ccc1O` gave an IC50 of 84 µM.
`Oc1ccc(Oc2ccc(C(F)(F)F)cc2Cl)cc1` gave an IC50 of 100 µM.
`Oc1ccc(Oc2cccc(Cl)c2)cc1` gave an IC50 of 320 µM.
In the case of `Oc1ccc(Oc2ccc(Cl)cc2)cc1`, the IC50 is reported as 270 µM.
In the case of `Oc1ccc(Oc2ccc(Cl)cc2Cl)cc1`, the IC50 is reported as 120 µM.
`Oc1ccc(Oc2cccc(C(F)(F)F)c2)cc1` was tested, and the IC50 was 240 µM.
